Source: patent publication US8383631B2, “1,6-disubstituted-3-amino-4,5,6,7-tetrahydro-1H-pyrazolo[3,4-C]pyridin-7-one compounds and preparation thereof” (Korea Institute of Science and Technology, priority 2010, dated 2013)

Key:
Format in all cases: cell-based
A375P = experiment: SRB anticancer activity screening, A375P; parameters: Inhibition % for cancer cells A375P: dose or concentration left out as unconfirmed; conditions: A375P human melanoma cancer, 48 hours
HCT-116 = experiment: SRB anticancer activity screening, HCT-116; parameters: Inhibition % for cancer cells HCT-116: dose or concentration left out as unconfirmed; conditions: HCT-116 human colon cancer, 48 hours
HT-29 = experiment: SRB anticancer activity screening, HT-29; parameters: Inhibition % for cancer cells HT-29: dose or concentration left out as unconfirmed; conditions: HT-29 human colon adenocarcinoma, 48 hours
Method: (§1) A-549 (human lung carcinoma), HT-29 (human colon adenocarcinoma), DU145 (human prostate cancer), SK-MEL-2 (human malignant melanoma) and SK-OV-3 (human ovary malignant ascites) cells were used to evaluate the anticancer activity of the test compounds. All the cancer cells are all tumors cells derived from human and were acquired from the Korean Cell Line Bank. RP MI 1640 medium containing 10% fetal bovine serum was used as a culture medium. Cell culturing was performed in a constant-temperature, constant-humidity incubator (37° C., 5% CO2). Subculturing was performed once in 3 days, using 0.25% trypsin-1 mM EDTA.
(§2) The sulforhodamine B ([…]) assay, which was developed in 1989 by the National Cancer Institute to measure in vitro anticancer activity of drugs, was employed.
(§3) The subcultured cells were transferred using trypsin-EDTA solution to a 96-well microplate, at 5×10^3 cells per well, and then cultured in a CO2 incubator for 24 hours. After removing the medium and adding a solution of the test compound (100 μL) diluted 4-fold, the cells were cultured for 48 hours. […] After completely lysing the cells by adding 10 mM Trizma base (pH 10.3, 200 μL) to each well, absorbance was measured at 520 nm.
(§4) In order to evaluate the activity of the test compound for the cancer cells, GI50 was calculated according to Equation 1 or 2. […]
(§5) Then, IC50 value was calculated from the inhibitory concentration.

DU-145 = experiment: SRB anticancer activity screening, DU-145; parameters: Inhibition % for cancer cells DU-145: dose or concentration left out as unconfirmed; conditions: DU-145 human prostate cancer, 48 hours
Method: as §1, §2, §3, §4, §5

SMILES	Inhibition % for cancer cells A375P (A375P) [%]	Inhibition % for cancer cells HCT-116 (HCT-116) [%]	Inhibition % for cancer cells HT-29 (HT-29) [%]	Inhibition % for cancer cells DU-145 (DU-145) [%]	IC50 (A375P; read-out: IC50 (μM) for cancer cells A375P) [µM]	IC50 (HCT-116; read-out: IC50 (μM) for cancer cells HCT-116) [µM]	IC50 (HT-29; read-out: IC50 (μM) for cancer cells HT-29) [µM]	IC50 (DU-145; read-out: IC50 (μM) for cancer cells DU-145) [µM]
Cc1ccc(N2CCc3c(N)nn(C(=O)CCN4CCN(c5ccc(Cl)cc5)CC4)c3C2=O)cc1 [Compound 9, 3-amino-1-[{4-(4-chlorophenyl)piperazin-1-yl}propanoyl]-6-N-(p-tolyl)-4,5,6,7-tetrahydro-1-H-pyrazolo[3,4-c]pyridin-7-one]	95.03	92.19	90.54	80.02				
Cc1ccc(N2CCN(CCC(=O)n3nc(N)c4c3C(=O)N(Cc3ccccc3)CC4)CC2)c(C)c1 [Compound 17, 3-amino-1-[{4-(2,4-dimethylphenyl)piperazin-1-yl}propanoyl]-6-N-benzyl-4,5,6,7-tetrahydro-1H-pyrazolo[3,4-c]pyridin-7-one]					0.34 ± 0.03	0.34 ± 0.01	0.15 ± 0.01	0.4 ± 0.02
